{"source": "PubChem BioAssay (NCI)", "assay_in_all_cases": "growth of human tumour cells (NCI), 48 h", "key": {"MDA-MB-231 breast": {"test_system": "MDA-MB-231 breast"}, "COLO 205 colon": {"test_system": "COLO 205 colon"}, "HCT-116 colon": {"test_system": "HCT-116 colon"}, "T-47D breast": {"test_system": "T-47D breast"}, "ACHN renal": {"test_system": "ACHN renal"}, "A498 renal": {"test_system": "A498 renal"}, "HOP-92 NSCLC": {"test_system": "HOP-92 NSCLC"}, "SW-620 colon": {"test_system": "SW-620 colon"}, "EKVX NSCLC": {"test_system": "EKVX NSCLC"}, "SK-OV-3 ovarian": {"test_system": "SK-OV-3 ovarian"}, "HOP-62 NSCLC": {"test_system": "HOP-62 NSCLC"}, "MCF7 breast": {"test_system": "MCF7 breast"}, "BT-549 breast": {"test_system": "BT-549 breast"}, "M14 melanoma": {"test_system": "M14 melanoma"}, "SF-268 CNS": {"test_system": "SF-268 CNS"}, "OVCAR-3 ovarian": {"test_system": "OVCAR-3 ovarian"}, "PC-3 prostate": {"test_system": "PC-3 prostate"}, "NCI-H226 lung": {"test_system": "NCI-H226 lung"}, "U251 CNS": {"test_system": "U251 CNS"}, "HL-60(TB) leukemia": {"test_system": "HL-60(TB) leukemia"}, "UACC-257 melanoma": {"test_system": "UACC-257 melanoma"}, "K-562 leukemia": {"test_system": "K-562 leukemia"}, "SK-MEL-28 melanoma": {"test_system": "SK-MEL-28 melanoma"}, "SK-MEL-2 melanoma": {"test_system": "SK-MEL-2 melanoma"}, "IGROV1 ovarian": {"test_system": "IGROV1 ovarian"}, "KM12 colon": {"test_system": "KM12 colon"}, "SN12C renal": {"test_system": "SN12C renal"}, "HCC-2998 colon": {"test_system": "HCC-2998 colon"}, "SK-MEL-5 melanoma": {"test_system": "SK-MEL-5 melanoma"}, "SF-295 CNS": {"test_system": "SF-295 CNS"}, "OVCAR-5 ovarian": {"test_system": "OVCAR-5 ovarian"}, "TK-10 renal": {"test_system": "TK-10 renal"}, "NCI/ADR-RES ovarian": {"test_system": "NCI/ADR-RES ovarian"}, "MDA-N": {"test_system": "MDA-N"}, "DU-145 prostate": {"test_system": "DU-145 prostate"}, "RPMI-8226 leukemia": {"test_system": "RPMI-8226 leukemia"}, "CAKI-1 renal": {"test_system": "CAKI-1 renal"}, "LOX IMVI melanoma": {"test_system": "LOX IMVI melanoma"}, "MOLT-4 leukemia": {"test_system": "MOLT-4 leukemia"}, "HCT-15 colon": {"test_system": "HCT-15 colon"}, "A549 NSCLC": {"test_system": "A549 NSCLC"}, "OVCAR-4 ovarian": {"test_system": "OVCAR-4 ovarian"}, "UO-31 renal": {"test_system": "UO-31 renal"}, "786-0 renal": {"test_system": "786-0 renal"}, "MDA-MB-435": {"test_system": "MDA-MB-435"}, "MALME-3M melanoma": {"test_system": "MALME-3M melanoma"}, "SNB-75 CNS": {"test_system": "SNB-75 CNS"}, "NCI-H522 lung": {"test_system": "NCI-H522 lung"}, "OVCAR-8 ovarian": {"test_system": "OVCAR-8 ovarian"}, "HS 578T breast": {"test_system": "HS 578T breast"}, "RXF 393 renal": {"test_system": "RXF 393 renal"}, "UACC-62 melanoma": {"test_system": "UACC-62 melanoma"}, "NCI-H23 lung": {"test_system": "NCI-H23 lung"}, "HT29 colon": {"test_system": "HT29 colon"}}, "note": "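96-well plates; 48 h exposure; 5 concentrations. Endpoints by linear interpolation between flanking doses. Not reached: highest tested concentration assigned. TGI: concentration producing complete growth inhibition.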", "data": [{"smiles": "CCCCOC(=O)C1CC[C@H]2[C@@H]3CCc4cc(OC(=O)c5cccc6c(=O)c7ccccc7[nH]c56)ccc4[C@H]3CC[C@]12C", "note": "(some centres undefined)", "values": [{"measurement": "TGI", "setting": "MDA-MB-231 breast", "value": 14.5, "unit": "µM"}, {"measurement": "TGI", "setting": "COLO 205 colon", "value": 13.8, "unit": "µM"}, {"measurement": "TGI", "setting": "HCT-116 colon", "value": 17.1, "unit": "µM"}, {"measurement": "TGI", "setting": "T-47D breast", "value": 14.1, "unit": "µM"}, {"measurement": "TGI", "setting": "ACHN renal", "value": 15.6, "unit": "µM"}, {"measurement": "TGI", "setting": "A498 renal", "value": 16.7, "unit": "µM"}, {"measurement": "TGI", "setting": "HOP-92 NSCLC", "value": 16.5, "unit": "µM"}, {"measurement": "TGI", "setting": "SW-620 colon", "value": 30.5, "unit": "µM"}, {"measurement": "TGI", "setting": "EKVX NSCLC", "value": 8.77, "unit": "µM"}, {"measurement": "TGI", "setting": "SK-OV-3 ovarian", "value": 18, "unit": "µM"}, {"measurement": "TGI", "setting": "HOP-62 NSCLC", "value": 16.4, "unit": "µM"}, {"measurement": "TGI", "setting": "MCF7 breast", "value": 25.8, "unit": "µM"}, {"measurement": "TGI", "setting": "BT-549 breast", "value": 15, "unit": "µM"}, {"measurement": "TGI", "setting": "M14 melanoma", "value": 20.5, "unit": "µM"}, {"measurement": "TGI", "setting": "SF-268 CNS", "value": 19.6, "unit": "µM"}, {"measurement": "TGI", "setting": "OVCAR-3 ovarian", "value": 15.3, "unit": "µM"}, {"measurement": "TGI", "setting": "PC-3 prostate", "value": 15.6, "unit": "µM"}, {"measurement": "TGI", "setting": "NCI-H226 lung", "value": 20.6, "unit": "µM"}, {"measurement": "TGI", "setting": "U251 CNS", "value": 18.7, "unit": "µM"}, {"measurement": "TGI", "setting": "HL-60(TB) leukemia", "value": 13.6, "unit": "µM"}, {"measurement": "TGI", "setting": "UACC-257 melanoma", "value": 15.3, "unit": "µM"}, {"measurement": "TGI", "setting": "K-562 leukemia", "value": 21.4, "unit": "µM"}, {"measurement": "TGI", "setting": "SK-MEL-28 melanoma", "value": 21.2, "unit": "µM"}, {"measurement": "TGI", "setting": "SK-MEL-2 melanoma", "value": 18.5, "unit": "µM"}, {"measurement": "TGI", "setting": "IGROV1 ovarian", "value": 14.9, "unit": "µM"}, {"measurement": "TGI", "setting": "KM12 colon", "value": 17, "unit": "µM"}, {"measurement": "TGI", "setting": "SN12C renal", "value": 15.3, "unit": "µM"}, {"measurement": "TGI", "setting": "HCC-2998 colon", "value": 15.8, "unit": "µM"}, {"measurement": "TGI", "setting": "SK-MEL-5 melanoma", "value": 12.8, "unit": "µM"}, {"measurement": "TGI", "setting": "SF-295 CNS", "value": 16.1, "unit": "µM"}, {"measurement": "TGI", "setting": "OVCAR-5 ovarian", "value": 19.8, "unit": "µM"}, {"measurement": "TGI", "setting": "TK-10 renal", "value": 14.7, "unit": "µM"}, {"measurement": "TGI", "setting": "NCI/ADR-RES ovarian", "value": 24.3, "unit": "µM"}, {"measurement": "TGI", "setting": "MDA-N", "value": 14.5, "unit": "µM"}, {"measurement": "TGI", "setting": "DU-145 prostate", "value": 14.9, "unit": "µM"}, {"measurement": "TGI", "setting": "RPMI-8226 leukemia", "value": 20.6, "unit": "µM"}, {"measurement": "TGI", "setting": "CAKI-1 renal", "value": 13.7, "unit": "µM"}, {"measurement": "TGI", "setting": "LOX IMVI melanoma", "value": 17.1, "unit": "µM"}, {"measurement": "TGI", "setting": "MOLT-4 leukemia", "value": 21.7, "unit": "µM"}, {"measurement": "TGI", "setting": "HCT-15 colon", "value": 13.5, "unit": "µM"}, {"measurement": "TGI", "setting": "A549 NSCLC", "value": 17.6, "unit": "µM"}, {"measurement": "TGI", "setting": "OVCAR-4 ovarian", "value": 14.5, "unit": "µM"}, {"measurement": "TGI", "setting": "UO-31 renal", "value": 14.9, "unit": "µM"}, {"measurement": "TGI", "setting": "786-0 renal", "value": 17, "unit": "µM"}, {"measurement": "TGI", "setting": "MDA-MB-435", "value": 18, "unit": "µM"}, {"measurement": "TGI", "setting": "MALME-3M melanoma", "value": 18.7, "unit": "µM"}, {"measurement": "TGI", "setting": "SNB-75 CNS", "value": 18.3, "unit": "µM"}, {"measurement": "TGI", "setting": "NCI-H522 lung", "value": 16.9, "unit": "µM"}, {"measurement": "TGI", "setting": "OVCAR-8 ovarian", "value": 21.3, "unit": "µM"}, {"measurement": "TGI", "setting": "HS 578T breast", "value": 39.7, "unit": "µM"}, {"measurement": "TGI", "setting": "RXF 393 renal", "value": 17, "unit": "µM"}, {"measurement": "TGI", "setting": "UACC-62 melanoma", "value": 13.3, "unit": "µM"}, {"measurement": "TGI", "setting": "NCI-H23 lung", "value": 16.6, "unit": "µM"}, {"measurement": "TGI", "setting": "HT29 colon", "value": 18.6, "unit": "µM"}]}]}
